Assay results: patent US10513521B2, “Compositions and methods for inhibiting BMP” (The Brigham and Women's Hospital, Inc., priority 2014, dated 2019)
Substitutions are numbered along the chain they refer to. Read-outs that look alike come from different tables or passages of the source.

Legend:
[1] = molecular target: T1, ALK2 (Mus musculus, UniProt P37172); experiment: HTRF pSMAD1 cell-based ALK2 assay (C2C12 cells, BMP6 as agonist); settings: BMP6
T1 construct: The C2C12 cell line was selected for the measurement of ALK2 activity using BMP6 as the agonist; host or cells: C2C12
T1 sequence (P37172 21-509): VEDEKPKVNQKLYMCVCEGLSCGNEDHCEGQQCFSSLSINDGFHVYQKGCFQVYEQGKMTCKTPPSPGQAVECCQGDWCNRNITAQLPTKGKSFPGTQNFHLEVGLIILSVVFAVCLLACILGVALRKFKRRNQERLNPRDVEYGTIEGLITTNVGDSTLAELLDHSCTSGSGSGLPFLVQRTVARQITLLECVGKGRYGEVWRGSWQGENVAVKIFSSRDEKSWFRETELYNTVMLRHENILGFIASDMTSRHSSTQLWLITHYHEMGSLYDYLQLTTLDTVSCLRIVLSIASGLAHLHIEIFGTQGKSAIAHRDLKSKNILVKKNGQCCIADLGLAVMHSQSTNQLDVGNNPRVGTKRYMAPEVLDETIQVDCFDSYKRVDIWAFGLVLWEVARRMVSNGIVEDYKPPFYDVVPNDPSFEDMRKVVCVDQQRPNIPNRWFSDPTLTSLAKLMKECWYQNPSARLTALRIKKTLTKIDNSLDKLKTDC
Procedure: 2. HTRF Cell-Based ALK1 and ALK2 Assays in 384-Well Plate Format We have developed a cell based ALK1 kinase assay and a cell-based ALK2 assay. The BAOEC cell line was employed for the measurement of ALK1 activity using BMP9 as the agonist. The C2C12 cell line was selected for the measurement of ALK2 activity using BMP6 as the agonist. The kinase specificity was defined by the specific cell line and agonist. The kinase activity was determined by the status of SMD 1/5/8 phosphorylation stimulated by the agonist.
HyClone Fetal Bovine Serum was obtained from GE healthcare life sciences (Logan, Utah). BMP6 and BMP9 were purchased from R&D System. […] The compound plates and the white solid MB assay plates were purchased from Greiner Bio-one (Monroe, N.C.).
HTRF optimization experiments were performed in 384 well plate format. […] Pre-starved cells were then plated in 384 well plate in the starvation medium (containing in 0.1% FBS). After 4 hours, compounds were added to the assay plate and incubated for 30 minutes. The assay plate was then added with BMP6 for C2C12 cells or BMP9 for BAOEC cells and incubated for 30 minutes.
HTRF assay was performed to measure the status of SMAD 1 phosphorylation after stimulated with the agonist (Table 3). This HTRF phospho SMAD1 cell assay was developed and optimized for the homogenous detection of phospho SMAD 1 levels in cells. […] The plate was incubated at room temperature for overnight.

[2] = molecular target: ALK6 (Homo sapiens, UniProt O00238); experiment: TR-FRET enzymatic ALK kinase assay, ALK6
ALK6, sequence (O00238 14-502): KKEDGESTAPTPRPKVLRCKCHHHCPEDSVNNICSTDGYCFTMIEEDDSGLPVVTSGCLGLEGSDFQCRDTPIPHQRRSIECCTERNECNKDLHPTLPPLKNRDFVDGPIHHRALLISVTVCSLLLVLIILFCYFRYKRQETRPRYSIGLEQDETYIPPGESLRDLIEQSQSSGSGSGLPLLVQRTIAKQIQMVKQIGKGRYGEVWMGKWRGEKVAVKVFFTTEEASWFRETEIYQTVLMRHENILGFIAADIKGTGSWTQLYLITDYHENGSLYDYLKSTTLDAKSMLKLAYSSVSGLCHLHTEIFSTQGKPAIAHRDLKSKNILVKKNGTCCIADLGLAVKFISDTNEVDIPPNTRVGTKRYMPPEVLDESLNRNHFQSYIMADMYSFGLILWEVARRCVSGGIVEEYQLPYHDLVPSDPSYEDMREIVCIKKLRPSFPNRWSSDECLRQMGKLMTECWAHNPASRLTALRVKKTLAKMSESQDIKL
Procedure: (§1) Briefly, the ALKs enzymatic assay was initiated by dispense 2.5 μl enzyme in 1× kinase reaction buffer. The assay plate was then added with compounds followed by incubation at room temperature for 10 minutes. Then 2.5 μl/well substrate was added.

[3] = molecular target: T2, ALK5 (Homo sapiens, UniProt P36897); experiment: TR-FRET enzymatic ALK kinase assay, ALK5
T2 sequence (P36897 34-503): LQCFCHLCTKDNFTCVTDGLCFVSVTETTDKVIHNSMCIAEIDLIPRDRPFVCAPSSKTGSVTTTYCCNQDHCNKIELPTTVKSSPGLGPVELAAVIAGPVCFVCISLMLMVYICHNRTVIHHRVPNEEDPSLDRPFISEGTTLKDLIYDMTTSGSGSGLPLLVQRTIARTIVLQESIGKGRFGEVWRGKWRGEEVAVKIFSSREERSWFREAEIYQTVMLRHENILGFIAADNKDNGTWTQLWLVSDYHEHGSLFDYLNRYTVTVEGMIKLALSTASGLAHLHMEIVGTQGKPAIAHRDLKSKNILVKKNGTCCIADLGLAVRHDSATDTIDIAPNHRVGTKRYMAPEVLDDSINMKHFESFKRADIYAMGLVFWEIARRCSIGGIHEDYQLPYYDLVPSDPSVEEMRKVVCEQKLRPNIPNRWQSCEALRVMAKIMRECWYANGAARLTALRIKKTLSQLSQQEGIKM
Procedure: Six ALK kinase enzyme assays were developed for determination of compound activities on ALK1, ALK2, ALK3, ALK4, ALK5 and ALK6.
as §1

[4] = molecular target: T3, ALK4 (Homo sapiens, UniProt P36896); experiment: TR-FRET enzymatic ALK kinase assay, ALK4
T3 sequence (P36896 24-505): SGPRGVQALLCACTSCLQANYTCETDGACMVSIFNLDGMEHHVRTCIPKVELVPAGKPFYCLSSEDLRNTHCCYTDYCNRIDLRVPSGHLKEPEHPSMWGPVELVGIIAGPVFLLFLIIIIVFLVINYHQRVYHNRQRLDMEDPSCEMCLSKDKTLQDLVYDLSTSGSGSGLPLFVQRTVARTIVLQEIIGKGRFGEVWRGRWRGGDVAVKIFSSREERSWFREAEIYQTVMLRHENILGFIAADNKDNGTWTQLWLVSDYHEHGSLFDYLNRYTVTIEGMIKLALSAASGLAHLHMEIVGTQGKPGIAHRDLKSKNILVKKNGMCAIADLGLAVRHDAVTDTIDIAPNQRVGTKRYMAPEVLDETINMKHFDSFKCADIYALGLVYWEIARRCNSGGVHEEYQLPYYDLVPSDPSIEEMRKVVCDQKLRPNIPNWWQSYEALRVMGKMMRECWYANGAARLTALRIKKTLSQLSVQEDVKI
Procedure: as §1

[5] = molecular target: ALK3 (Homo sapiens, UniProt P36894); experiment: TR-FRET enzymatic ALK kinase assay, ALK3
ALK3, sequence (P36894 24-532): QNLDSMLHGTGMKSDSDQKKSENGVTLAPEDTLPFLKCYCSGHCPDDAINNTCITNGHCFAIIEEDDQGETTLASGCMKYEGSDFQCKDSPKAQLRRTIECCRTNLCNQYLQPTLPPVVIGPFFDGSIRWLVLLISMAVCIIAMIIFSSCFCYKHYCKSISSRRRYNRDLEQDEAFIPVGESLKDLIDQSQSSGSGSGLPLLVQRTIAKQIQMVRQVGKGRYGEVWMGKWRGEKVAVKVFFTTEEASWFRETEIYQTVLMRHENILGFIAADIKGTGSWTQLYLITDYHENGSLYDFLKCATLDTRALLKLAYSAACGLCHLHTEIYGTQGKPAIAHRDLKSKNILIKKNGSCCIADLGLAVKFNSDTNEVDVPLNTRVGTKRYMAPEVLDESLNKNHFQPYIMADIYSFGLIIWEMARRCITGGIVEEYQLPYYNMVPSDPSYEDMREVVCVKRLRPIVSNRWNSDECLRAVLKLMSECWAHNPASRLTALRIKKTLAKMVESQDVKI
Procedure: as §1

[6] = molecular target: T4, ALK2 (Homo sapiens, UniProt Q04771); experiment: TR-FRET enzymatic ALK kinase assay, ALK2
T4 sequence (Q04771 21-509): T1 sequence (P37172 21-509) with V1M, Q10P, I121L, E162D, S310P
Procedure: as §1

[7] = molecular target: ALK1 (Homo sapiens, UniProt P37023); experiment: TR-FRET enzymatic ALK kinase assay, ALK1
ALK1, sequence (P37023 22-503): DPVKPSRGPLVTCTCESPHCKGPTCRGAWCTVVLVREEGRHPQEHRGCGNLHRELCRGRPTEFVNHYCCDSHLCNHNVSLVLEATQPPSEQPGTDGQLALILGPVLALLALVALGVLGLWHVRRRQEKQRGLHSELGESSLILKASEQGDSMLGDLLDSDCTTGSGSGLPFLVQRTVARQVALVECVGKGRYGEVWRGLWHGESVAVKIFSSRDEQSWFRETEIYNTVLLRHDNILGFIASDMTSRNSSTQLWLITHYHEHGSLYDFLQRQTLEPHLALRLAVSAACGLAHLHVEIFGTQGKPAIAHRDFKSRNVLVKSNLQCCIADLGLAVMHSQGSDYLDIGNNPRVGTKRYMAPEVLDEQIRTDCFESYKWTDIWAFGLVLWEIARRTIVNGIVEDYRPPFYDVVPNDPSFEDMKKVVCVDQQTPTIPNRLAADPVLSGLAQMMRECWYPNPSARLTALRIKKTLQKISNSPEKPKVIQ
Procedure: as §1

[8] = cell-based assay, read-out: Cell IC50 BMP6
[9] = Cell IC50 BMP6, cell-based assay

Row | Compound | IC50 [1, 8] | IC50 [2] | IC50 [3] | IC50 [4] | IC50 [5] | IC50 [6] | IC50 [7] | IC50 [1, 9]
1 | C[C@@H]1CNC[C@H](C)N1c1ccc(-c2cnc3c(-c4ccc(Cl)c5ccccc45)cnn3c2)cc1 [Compound 44, 3-(4-chloronaphthalen-1-yl)-6-(4-((2R,6S)-2,6-dimethylpiperazin-1-yl)phenyl)pyrazolo[1,5-a]pyrimidine] | 5.5 µM | > 10 µM | > 10 µM | > 10 µM | 2 µM | 0.13 µM | 0.39 µM | –
2 | C[C@@H]1CNC[C@H](C)N1c1ccc(-c2cnc3c(-c4cccc(C#N)c4)cnn3c2)cc1 [Compound 69, 3-(6-(4-((2R,6S)-2,6-dimethylpiperazin-1-yl)phenyl)pyrazolo[1,5-a]pyrimidin-3-yl)benzonitrile] | 2.25 µM | > 10 µM | > 10 µM | > 10 µM | > 10 µM | 0.14 µM | 0.93 µM | –
3 | CC(O)c1cccc(-c2cnn3cc(-c4ccc(CN5CCCCC5)cc4)cnc23)c1 (centres unmarked) [Compound 124, 1-(3-(6-(4-(piperidin-1-ylmethyl)phenyl)pyrazolo[1,5-a]pyrimidin-3-yl)phenyl)ethanol] | 0.00538 µM | > 10 µM | > 10 µM | > 10 µM | > 10 µM | 0.1 µM | 0.44 µM | –
4 | Cc1ccc(-c2cnn3cc(-c4ccc(N5[C@H](C)CNC[C@@H]5C)cc4)cnc23)cc1S(N)(=O)=O [Compound 55, 5-(6-(4-((2R,6S)-2,6-dimethylpiperazin-1-yl)phenyl)pyrazolo[1,5-a]pyrimidin-3-yl)-2-methylbenzenesulfonamide] | 4.73 µM | > 10 µM | > 10 µM | > 10 µM | > 10 µM | 0.19 µM | 0.8 µM | –
5 | Cc1ccc(S(C)(=O)=O)cc1-c1cnn2cc(-c3ccc(N4[C@H](C)CNC[C@@H]4C)cc3)cnc12 [Compound 116, 6-(4-((2R,6S)-2,6-dimethylpiperazin-1-yl)phenyl)-3-(2-methyl-5-(methylsulfonyl)phenyl)pyrazolo[1,5-a]pyrimidine] | 0.319 µM | > 10 µM | > 10 µM | > 10 µM | > 10 µM | 2.2 µM | > 10 µM | –
6 | CN1CCN(c2ccc(-c3cnc4c(-c5ccc(S(N)(=O)=O)c6ccccc56)cnn4c3)cn2)CC1 [Compound 48, 4-(6-(6-(4-methylpiperazin-1-yl)pyridin-3-yl)pyrazolo[1,5-a]pyrimidin-3-yl)naphthalene-1-sulfonamide] | 12 µM | > 10 µM | > 10 µM | > 10 µM | > 10 µM | 0.56 µM | 3.9 µM | –
7 | NS(=O)(=O)c1ccc(-c2cnn3cc(-c4ccc(N5CCNCC5)nc4)cnc23)c2ccccc12 [Compound 49, 4-(6-(6-(piperazin-1-yl)pyridin-3-yl)pyrazolo[1,5-a]pyrimidin-3-yl)naphthalene-1-sulfonamide] | – | > 10 µM | > 10 µM | > 10 µM | – | – | 1.7 µM | 0.316 µM
8 | CS(=O)(=O)c1cccc(-c2cnn3cc(-c4ccc(OCCn5ccnc5)cc4)cnc23)c1 [Compound 102, 6-(4-(2-(1H-imidazol-1-yl)ethoxy)phenyl)-3-(3-(methylsulfonyl)phenyl)pyrazolo[1,5-a]pyrimidine] | 0.225 µM | – | – | – | – | – | – | –
9 | C[C@@H]1CNC[C@H](C)N1c1ccc(-c2cnc3c(-c4ccc(S(N)(=O)=O)c(N)c4)cnn3c2)cc1 [Compound 57, 2-amino-4-(6-(4-((2R,6S)-2,6-dimethylpiperazin-1-yl)phenyl)pyrazolo[1,5-a]pyrimidin-3-yl)benzenesulfonamide] | 0.75 µM | > 10 µM | > 10 µM | > 10 µM | – | – | 0.76 µM | –

Second part, led by results:

Row | IC50 [1, 8] | IC50 [2] | IC50 [3] | IC50 [4] | IC50 [5] | IC50 [6] | IC50 [7] | Compound | IC50 [1, 9]
10 | 10 µM | > 10 µM | > 10 µM | > 10 µM | > 10 µM | 0.068 µM | 0.18 µM | NS(=O)(=O)c1ccc(-c2cnn3cc(-c4ccc(C5(O)CCNCC5)cc4)cnc23)c2ccccc12 [Compound 66, 4-(6-(4-(4-hydroxypiperidin-4-yl)phenyl)pyrazolo[1,5-a]pyrimidin-3-yl)naphthalene-1-sulfonamide] | –
11 | 0.008 µM | 9.8 µM | > 10 µM | > 10 µM | 8.1 µM | 0.079 µM | 1.3 µM | O=[S+]([O-])(c1cccc(-c2cnn3cc(-c4ccc(CCN5CCCCC5)cc4)cnc23)c1)C1CC1 [Compound 112, 3-(3-(cyclopropylsulfonyl)phenyl)-6-(4-(2-(piperidin-1-yl)ethyl)phenyl)pyrazolo[1,5-a]pyrimidine] | –
12 | 0.609 µM | > 10 µM | > 10 µM | > 10 µM | – | – | 0.21 µM | C[C@@H]1CNC[C@H](C)N1c1ccc(-c2cnc3c(-c4cccc(S(N)(=O)=O)c4)cnn3c2)cc1 [Compound 60, 3-(6-(4-((2R,6S)-2,6-dimethylpiperazin-1-yl)phenyl)pyrazolo[1,5-a]pyrimidin-3-yl)benzenesulfonamide] | –
13 | – | > 10 µM | > 10 µM | > 10 µM | – | – | 0.17 µM | CC(C)(CN1CCCCC1)Oc1ccc(-c2cnc3c(-c4ccc(S(N)(=O)=O)c5ccccc45)cnn3c2)cc1 [Compound 52, 4-(6-(4-((2-methyl-1-(piperidin-1-yl)propan-2-yl)oxy)phenyl)pyrazolo[1,5-a]pyrimidin-3-yl)naphthalene-1-sulfonamide] | 0.008 µM
